For orientation: AC50 means the concentration at which the activity in the assay is half-maximal.

The test system of the test is SK-MEL-5 TRPM1-promoter luciferase reporter, 24 h. Description: TRPM1 promoter luciferase signal decrease, dose response, MITF inhibitor project, cell-based, SK-MEL-5, cherry-picked, set 4 (AID 493102).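 Note: actives lower the luciferase signal so the potency reflects inhibition of reporter expression.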
In the case of `CN(C)CCNC(=O)/C(=C/c1ccc(-c2ccc(Cl)cc2Cl)o1)NC(=O)c1ccccc1`, the AC50 was 4.97 µM. As to `COCCNC(=O)/C(C#N)=C/c1cccc(/C=C(\C#N)C(=O)NCCOC)c1`, the AC50 was 12.7 µM. In the case of `CN1CCN(c2ccccc2NC(=O)c2ccc([N+](=O)[O-])o2)CC1`, the AC50 was 4.95 µM.

Consider `COc1ccc(C(=O)Nc2ccc(C)cn2)c(OC)c1`, for which the AC50 was 3.7 µM. Turning to `Cc1cc(C)c2ccc(N)nc2c1O`, the AC50 was 9.58 µM.

Consider `CCC(C)(C)c1ccc(OCCCC[n+]2ccccc2)c(C(C)(C)CC)c1`, for which the AC50 is 4.35 µM. For the molecule `CC[n+]1c(-c2ccccc2)c2cc(N)ccc2c2ccc(N)cc21`, the half-maximal activity concentration (AC50) is 2.42 µM. As for `Nc1ccc2c(c1)OC1(CCCC1)O2`, the AC50 was 11.2 µM. As to `CCOc1ccc(-c2ccc(SC)nn2)cc1`, the AC50 is 5.17 µM. Take `Cc1ccc2nc(NC(=O)CSCC(=O)OCC(=O)c3ccccc3)sc2c1`: the AC50 is 5.78 µM. `O=C(NCc1ccco1)c1nc2c(nnn2Cc2ccccc2Cl)c(=O)[nH]1`: the AC50 is 14.4 µM. For `Cc1ccc(C(=O)N/C(=C\c2ccc(-c3ccc(Br)cc3)o2)C(=O)NCCCN(C)C)cc1`, the AC50 is 6.84 µM. In the case of `O=[N+]([O-])c1ccc(/C=N/Nc2ccnc3cc(Cl)ccc23)o1`, the AC50 is 15.3 µM.

Take `O=C1c2cc([N+](=O)[O-])cc3cc([N+](=O)[O-])cc(c23)C(=O)N1c1ccccn1`: the AC50 was 7.92 µM. Take `CCN1c2ccccc2NC2C1C(C(C)=O)C(=O)N2c1ccc(Cl)cc1` (centres undefined): the AC50 is 12.7 µM.

`CCN1CCN(c2ccc(Nc3ccnc4ccccc34)cc2)CC1`: the concentration at half-maximal activity (AC50) was 12.3 µM.

`COc1cc(OC)cc(C(=O)N[C@H](C(=O)Nc2nc3ccccc3[nH]2)C(C)C)c1`: the AC50 was 2.44 µM.

Turning to `COCCn1c(C)cc(C(=O)CSc2nnc(C)s2)c1C`, the AC50 was 3.04 µM.

In the case of `CC(=O)Cn1ncc(Br)c(Br)c1=O`, the AC50 was 15.8 µM. `CC(C)Oc1ccc(C(CCN)C2CCCCC2)cc1` (centres undefined): the AC50 is 9.99 µM. As to `COc1ccc2oc(C(=O)Nc3ccc(S(=O)(=O)N(C)C4CCN(C)CC4)cc3)c(C)c2c1`, the AC50 is 13 µM. Turning to `Nc1ccc(-c2cc3ccccc3c(=O)o2)cc1`, the AC50 was 0.293 µM. With `CC(=NNc1nc2ccccc2o1)c1cc2ccccc2cn1`, the AC50 was 0.175 µM. The result for `CC(=O)N(C)C1=C(N2CCOCC2)C(=O)c2ccccc2C1=O` reads 3.5 µM; that for `CS(=O)(=O)c1ncc(Cl)c(C(=O)Nc2ccc(N3CCOCC3)cc2)n1`, 22.8 µM; that for `COc1ccc(-c2c[n+](CC(=O)OC3CC(C)CCC3C(C)C)c3n2CCC3)cc1` (centres undefined), 4.87 µM.

`N#Cc1c(NC(=O)CSc2ncn[nH]2)sc2c1CCCCC2`: the AC50 was 0.371 µM.

Consider `CCC[n+]1c(C)sc2c3c(ccc21)CCCC3`, for which the AC50 is 9.87 µM.

With `C[C@H]1CCC[C@]2(C)C[C@H]3OC(=O)C(CN4CCCCCC4)[C@H]3C=C12` (some centres undefined), the AC50 was 13.9 µM. For the molecule `N=c1n(CC(=O)c2ccc(Br)cc2)c2ccccc2n1Cc1ccccc1`, the AC50 is 6.41 µM.

In the case of `CCn1c(/C=C/Nc2ccccc2)[n+](CC)c2cc(Cl)c(Cl)cc21`, the AC50 is 14.5 µM. As to `CC(=O)N(C1CC(C)C(C#N)(C#N)C1(C#N)C#N)N(C)C` (centres undefined), the AC50 was 9.24 µM. For `Cc1ccc(Oc2c(C(N)=O)cc([N+](=O)[O-])cc2[N+](=O)[O-])cc1`, the AC50 is 3.68 µM. For `O=C(N/N=C/c1ccc([N+](=O)[O-])s1)c1cccc(Br)c1`, the half-maximal activity concentration (AC50) is 4.83 µM. On to `O=C(CNc1cccc2ccccc12)N/N=C/c1ccc([N+](=O)[O-])o1`, for which the AC50 is 5.04 µM. As to `COc1ccccc1-c1cc(C(F)(F)F)nc(S(C)(=O)=O)n1`, the AC50 was 6.81 µM. With `O=C1/C(=C/c2ccccc2[N+](=O)[O-])COc2ccccc21`, the AC50 is 9.8 µM. Take `COc1cc(NC(=O)c2ccc([N+](=O)[O-])o2)ccc1NC(=O)c1cccs1`: the AC50 is 8.46 µM. Next, `O=C(N/N=C/c1ccc([N+](=O)[O-])o1)c1cc2ccccc2o1`: 5.99 µM; `O=C(/C=C/c1ccc(Cl)cc1)c1ccc([N+](=O)[O-])o1`: 5.32 µM; `O=C(/C=C/NNC(=O)c1ccccc1)c1ccc([N+](=O)[O-])cc1`: 9.19 µM. As to `CCSc1ccccc1C(=O)n1nnc2ccccc21`, the AC50 was 11.8 µM. Next, `Cc1cc(-n2c(C)cc(C(=O)CCl)c2C)no1`: 5.5 µM; `Cc1nc2ccccn2c1C(=O)N/N=C/c1ccc([N+](=O)[O-])o1`: 8.03 µM; `CC(C)(C)c1ccc(/C=N/Nc2ccc(C(=O)O)cc2)cc1`: 6.03 µM. The result for `COC(=O)c1ccc(-n2c(C)cc(C(=O)CCl)c2C)cc1` reads 7.46 µM; that for `CCOc1cc(/C=C\[N+](=O)[O-])ccc1OCC(=O)N1CCOCC1`, 7.35 µM; that for `Cc1ccc(S(=O)(=O)CC(CN2CCCCC2)N2CCCCC2)cc1` (centres undefined), 8.1 µM.

On to `CCSC1(SCC)N=C(N)C2(C#N)C(c3ccc(F)cc3)C12C#N` (centres undefined), for which the AC50 was 14 µM. Next, `Cc1cc(C)c2nc3nc(C)cc(C)c3c(N)c2c1`: 5.72 µM. For the molecule `Cc1ccc(-c2cn3cc(C)ccc3n2)cc1`, the AC50 was 2.03 µM.

Take `O=C(O)/C=C/C(=O)c1ccc2c(c1)CCc1ccccc1-2`: the AC50 was 15 µM. As for `Cc1ccc(-c2nnc(SCC(=O)Nc3ccccc3F)o2)cc1`, the AC50 is 2.3 µM. For `O=C(Cn1ncc(Cl)c(Cl)c1=O)Nc1ccc2c(c1)OCO2`, the AC50 was 13.2 µM. For the molecule `COc1ccc(C(=O)/C=C/C(=O)N(CC(=O)NC2CCCCC2)CC2CCCO2)c(O)c1` (centres undefined), the AC50 is 4.01 µM.

With `COCCN(CC(=O)NC1CCCCC1)C(=O)/C=C/C(=O)c1ccc(OC)cc1O`, the AC50 was 5.48 µM. Regarding `Cc1ccc(/C=N/Nc2ccc(C(=O)O)cc2)s1`, the AC50 is 3.3 µM.

In the case of `Cn1cc(C(=O)CCl)c2ccccc21`, the AC50 is 8.48 µM.

For `O=C(/C=C\c1ccccc1)NCC(=O)N/N=C/c1ccc(O)cc1O`, the AC50 was 7.99 µM. `CCOC(=O)c1c(NC(C)=O)sc2c(OCC(O)CNC(C)(C)C)c(Br)ccc12` (centres undefined): the AC50 is 7.72 µM.

Consider `COc1cc2c(cc1O)C(SC)=NC(C)(C)C2`, for which the AC50 is 11.3 µM. In the case of `Cc1ccccc1OCC(=O)N/N=C/c1ccc([N+](=O)[O-])o1`, the AC50 was 8.22 µM.

On to `COc1ccc(Cn2c(-c3ccc(C)cc3)c[n+]3ccccc23)cc1`, for which the AC50 was 2.89 µM. Take `CCOC(=O)Cn1cc([N+](=O)[O-])nc1[N+](=O)[O-]`: the AC50 is 29.5 µM.

Regarding `O=C1/C(=N\S(=O)(=O)c2cccs2)C([n+]2ccccc2)=C([O-])c2ccccc21`, the AC50 was 1.07 µM. The result for `CCOc1ccc(NC(=O)CCC(=O)N/N=C/c2ccc([N+](=O)[O-])s2)cc1` reads 6.21 µM. For the molecule `O=C(COC(=O)c1ccc(F)c([N+](=O)[O-])c1)NC(=O)NCc1ccccc1`, the AC50 is 13.6 µM.

Regarding `CC(=O)Nc1sc(C)c(C)c1C(=O)OCC(=O)N(CC(C)C)c1c(N)n(Cc2ccccc2)c(=O)[nH]c1=O`, the AC50 was 5.29 µM. As for `CN(C)CC1CC/C(=C\c2ccc(O)cc2)C1=O` (centres undefined), the AC50 was 12.9 µM. With `NCCCNc1nc(N)c([N+](=O)[O-])c(NC2CCCCC2)n1`, the AC50 is 6.36 µM. In the case of `Cc1cc(C)n(-c2ccc(C(=O)Nc3ccc(C)c(S(=O)(=O)N4CCOCC4)c3)cc2)n1`, the AC50 is 4.54 µM. With `COc1ccc(-n2cc(-c3ccc(C)cc3)[n+]3c2SCC3)cc1`, the AC50 is 2.91 µM.

In the case of `CCc1cc[n+](C2=C([O-])c3ccccc3C(=O)/C2=N\S(=O)(=O)c2cccs2)cc1`, the AC50 is 1.15 µM. Next, `CCN(CC)CCC(=O)N1C/C(=C/c2ccccc2)C(=O)/C(=C\c2ccccc2)C1`: 4.72 µM; `COc1ccc(C(=O)/C=C/C(=O)N(CC(=O)NC2CCCCC2)Cc2ccccc2OC)c(O)c1`: 4.04 µM; `Cc1c(CCOC(=O)c2ccc(Cl)cc2Cl)sc[n+]1CC(=O)c1ccc(Br)cc1`: 19.8 µM. `O=C(Nc1ccc(S(=O)(=O)NC2=NCCCCC2)cc1)c1ccc([N+](=O)[O-])s1`: the AC50 is 5.11 µM.

Take `O=C1NC(=O)N(Cc2ccccc2Cl)C(=O)/C1=C/c1cccs1`: the AC50 was 29.7 µM. As to `CC1(C)CC(=O)C=C(NC2=CC3OC(c4ccccc4)OCC3OC2=O)C1` (centres undefined), the AC50 is 7.71 µM. As to `Cn1c(=O)c([N+](=O)[O-])c(-n2ccnc2)c2ccccc21`, the AC50 is 6.6 µM. Regarding `O=C(O)c1cccc(COc2ccccc2Cl)c1`, the AC50 was 0.756 µM.

Turning to `O=C(C#Cc1ccccc1)c1cccc([N+](=O)[O-])c1`, the AC50 is 3.62 µM. Turning to `COc1ccc(NC(C)C(=O)N/N=C/c2ccc([N+](=O)[O-])s2)cc1` (centres undefined), the AC50 is 15.8 µM. Take `CC(C)(C)c1ccc(C(=O)N2CCCCCC2=O)cc1`: the AC50 was 1.12 µM. As for `CC1CCN(c2nc3ccc(C(=O)O)cc3s2)CC1`, the AC50 is 1.25 µM. Next, `CCOC(=O)/C=c1\s/c(=C\c2ccc3cc(OC)ccc3c2)c(=O)n1CC(=O)NCC1CCCO1` (centres undefined): 5.73 µM; `CCc1ccc(N2C(=O)NC(=O)/C(=C\C=C\c3ccco3)C2=O)cc1`: 7.53 µM. With `O=C(/C=C/c1ccc([N+](=O)[O-])s1)N1CCCC1`, the AC50 is 9.86 µM. As to `COc1cc(C2C(C#N)=C(N)Oc3cc4c(cc32)OCO4)cc(OC)c1OC` (centres undefined), the AC50 was 0.365 µM. Take `C=CCNC1=C(Cl)C(=O)c2ccccc2C1=O`: the AC50 was 4.06 µM. `CCC(=O)N1CCN(c2ccc(Cl)cc2NC(=O)c2ccc([N+](=O)[O-])o2)CC1`: the AC50 is 12.4 µM. As to `CCN1CCc2c(sc(NC(=O)c3ccc(S(=O)(=O)N4CCCC4)cc3)c2C(=O)NC)C1`, the AC50 is 9.14 µM.

Regarding `Cc1c(C#N)c(O)n(CCO)c(=O)c1N=Nc1ccc2c(c1)COC2=O`, the AC50 is 9.69 µM. Next, `O=C(c1ccccc1)c1cc(Cl)ccc1N1C(=O)C=CC1=O`: 11.9 µM; `CCOC(=O)C(=Cc1ccc(-n2ccnc2)cc1)C(=O)OCC`: 9.38 µM. `O=[N+]([O-])c1ccc(/C=N/N=C/c2ccc([N+](=O)[O-])o2)o1`: the half-maximal activity concentration (AC50) was 9.36 µM. The result for `O=[N+]([O-])c1ccc(/C=N/n2c(CO)nc3ccccc32)s1` reads 1.98 µM; that for `CC1=NOC(=O)/C1=C\c1ccc(-c2cccc(Cl)c2)o1`, 5.36 µM; that for `CC1CCCCC1NC(=O)/C(C#N)=C/C=C/c1ccccc1[N+](=O)[O-]` (centres undefined), 7.92 µM.

Source of the values: PubChem BioAssay AID493102 (Broad Institute, 2011).
